Columns and labels:
[1] = test system: cell types harboring BRCA2 mutations (PE01, VC8, CAPAN-1; BRCA2-null HCT116 and DLD1); test: Synergy with PARP inhibitors, clonogenic survival of BRCA2-mutated/null cells; assay type: cell-based; conditions: olaparib as PARP inhibitor, Combenefit software analysis
Text: FIG. 3A depicts a representative scatter plot and synergy plot showing clongenic survival of HCT116 BRCA2-null cells treated with varying concentrations of olaparib with DMSO or various concentrations of Example 6. FIG. 3B depicts a representative scatter plot synergy plot showing clongenic survival of DLD1 BRCA2-null cells treated with varying concentrations of olaparib with DMSO or various concentrations of Example 6. FIG. 3C depicts a representative scatter plot synergy plot showing clongenic survival of PE01 cells treated with varying concentrations of olaparib with DMSO or various concentrations of Example 6. FIG. 3D depicts a representative scatter plot synergy plot showing clongenic survival of VC8 cells treated with varying concentrations of olaparib with DMSO or various concentrations of Example 6. FIG. 3E depicts a representative scatter plot synergy plot showing clongenic survival of CAPAN-1 cells treated with varying concentrations of olaparib with DMSO or various concentrations of Example 6. FIG. 3F depicts a representative scatter plot showing clongenic survival of MDA-MB-231 cells following treatment with various concentrations of talazoparib and DMSO or various concentrations of Example 6 and representative images of colony plates. For FIG. 3A through FIG. 3F, data are presented as mean±SEM; n=3; p-values calculated by two-sample t test. […]

[2] = molecular target: T1, human Polq polymerase domain (Homo sapiens, UniProt O75417); test: Cy5 fluorescence assay of Polq polymerase domain inhibition; assay type: biochemical
T1 sequence (O75417 1792-2590): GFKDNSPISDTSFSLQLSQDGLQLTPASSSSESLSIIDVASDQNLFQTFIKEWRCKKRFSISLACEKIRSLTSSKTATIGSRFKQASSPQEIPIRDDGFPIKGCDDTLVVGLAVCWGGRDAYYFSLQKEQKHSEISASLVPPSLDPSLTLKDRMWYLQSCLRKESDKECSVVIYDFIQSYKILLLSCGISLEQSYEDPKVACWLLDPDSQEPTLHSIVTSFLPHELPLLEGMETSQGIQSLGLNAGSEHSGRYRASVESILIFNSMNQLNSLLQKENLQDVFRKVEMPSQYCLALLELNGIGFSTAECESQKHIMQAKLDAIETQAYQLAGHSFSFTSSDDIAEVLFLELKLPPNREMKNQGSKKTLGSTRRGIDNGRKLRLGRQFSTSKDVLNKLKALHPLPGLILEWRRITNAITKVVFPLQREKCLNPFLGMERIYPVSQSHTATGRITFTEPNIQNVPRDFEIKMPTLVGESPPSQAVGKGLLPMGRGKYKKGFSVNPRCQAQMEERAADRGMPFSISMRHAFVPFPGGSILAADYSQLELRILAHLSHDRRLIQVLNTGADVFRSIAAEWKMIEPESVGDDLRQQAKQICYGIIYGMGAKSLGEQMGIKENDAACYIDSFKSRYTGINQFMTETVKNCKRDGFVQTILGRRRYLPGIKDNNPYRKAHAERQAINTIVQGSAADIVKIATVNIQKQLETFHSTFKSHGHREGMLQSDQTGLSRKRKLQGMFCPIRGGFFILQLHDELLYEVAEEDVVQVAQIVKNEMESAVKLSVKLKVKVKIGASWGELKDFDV
Method: The following Cy5 fluorescence assay was used to measure the ability of compounds to inhibit Polq polymerase domain in vitro. The fluorescent based assay was performed as follows: 60 nM of the pre-annealed primer-template containing a 5′ Cy5 fluorophore conjugated template strand (SEQ ID NO:3: 5′-/5Cy5/[…]-3′), a downstream complementary oligo conjugated with a 3′ Blackhole quencher (SEQ ID NO:4: 5′-CTAAGCTCACAGTG/3IAbRQSp/-3′) and a primer strand (SEQ ID NO:5: 5′-CTGTCCTGCATGATG-3′) was mixed with 50 uM 2′-deoxyribonucleoside triphosphates (dNTPs), 0.1 mg/mL Bovine serum albumin (BSA), 0.01% NP-40, 10% glycerol, 1 mM dithiothreitol (DTT), 10 mM MgCl2, 25 mM TrisHCl pH 7.8 in the presence of 2.5% DMSO with or without various concentrations (7-point dilution series) of Polq small molecule inhibitors represented by Formula I at 37 °C in a volume of 40 μL.

## CN(C(=O)Oc1c(N2CCN(CCO)C2=O)cc(C(F)(F)F)cc1C(F)(F)F)c1ccc(F)cc1 [Example 6, 2,4-bis(trifluoromethyl)-6-(3-(2-hydroxyethyl)-2-oxoimidazolidin-1-yl)phenyl (4-fluorophenyl)(methyl)carbamate]
[1]
  synergy with PARP inhibitors (clonogenic survival): Synergy
[2]
  IC50: 3.2 nM

## CN(C(=O)Oc1c(N2CCNC2=O)cc(C(F)(F)F)cc1C(F)(F)F)c1ccc(F)cn1 [Example 52, 2-(2-oxoimidazolidin-1-yl)-4,6-bis(trifluoromethyl)phenyl (5-fluoropyridin-2-yl)(methyl)carbamate]
[2]
  IC50: 11.4 nM

## [2H]C([2H])([2H])N(C(=O)Oc1c(N2CCN(CC3(O)CNC3)C2=O)cc(C(F)(F)F)cc1C(F)(F)F)c1ccc(F)cc1 [Example 36, 2-(3-((3-hydroxyazetidin-3-yl)methyl)-2-oxoimidazolidin-1-yl)-4,6-bis(trifluoromethyl)phenyl (4-fluorophenyl)(methyl-d3)carbamate]
[2]
  IC50: 6 nM

## Cc1cc(N(C)C(=O)Oc2c(N3CCNC3=O)cc(C(F)(F)F)cc2C(F)(F)F)ccc1F [Example 28, 2-(2-oxoimidazolidin-1-yl)-4,6-bis(trifluoromethyl)phenyl N-(4-fluoro-3-methylphenyl)-N-methylcarbamate]
[2]
  IC50: 1200 nM

## CC(=O)N1CCN(CCN2CCN(c3cc(C(F)(F)F)cc(C(F)(F)F)c3OC(=O)N(C)c3ccc(F)cc3)C2=O)CC1 [Example 2, 2-(3-(2-(4-acetylpiperazin-1-yl)ethyl)-2-oxoimidazolidin-1-yl)-4,6-bis(trifluoromethyl)phenyl (4-fluorophenyl)(methyl)carbamate]
[2]
  IC50: 4.5 nM

## [2H]C([2H])([2H])N(C(=O)Oc1c(N2C[C@@H](O)[C@@H](O)C2)cc(C(F)(F)F)cc1C(F)(F)F)c1ccc(F)cc1 [Example 41]
[2]
  IC50: 5.5 nM

## CN(C(=O)Oc1c(N2CCNC2=O)cc(C(F)(F)F)cc1C(F)(F)F)c1ccc2ccn(C)c2n1 [Example 29, 2-(2-oxoimidazolidin-1-yl)-4,6-bis(trifluoromethyl)phenyl N-methyl-N-{1-methyl-1H-pyrrolo[2,3-b]pyridin-6-yl}carbamate]
[2]
  IC50: 18000 nM

From patent US20260356820A1, “Pyrrolidine and Imidazolidine Based DNA Polymerase Theta Inhibitors and Use Thereof” (Thomas Jefferson University, priority 2022, published 2026)
